Test results published in patent US12570695B2, “Bicyclic peptide ligands specific for EphA2” (priority 2019, dated 2026).
Starred links: 1 amine or outer side, 2 acyl side, 3 side chain; linkers in the order of their positions; H or OH if unused. Positions of bridges follow the written chain, without caps; N, C: chain ends. Non-standard residues stand in square brackets, D forms with d. Residues, ends and D or L forms follow the SMILES beside them. TATA = O=C(CC[*:1])N1CN(C(=O)CC[*:2])CN(C(=O)CC[*:3])C1; Dip = N[C@H](C(=O)O)C(c1ccccc1)c1ccccc1; 1Nal = N[C@@H](Cc1cccc2ccccc12)C(=O)O; d1Nal = N[C@H](Cc1cccc2ccccc12)C(=O)O; Hyp = O=C(O)[C@@H]1C[C@@H](O)CN1; hArg = N=C(N)NCCCC[C@H](N)C(=O)O; Cba = N[C@@H](CC1CCC1)C(=O)O; NMeA = CN[C@@H](C)C(=O)O

These compounds were tested against human EphA2 (Homo sapiens, UniProt P29317) (assay: biochemical).
Sequence of human EphA2 (P29317 24-976): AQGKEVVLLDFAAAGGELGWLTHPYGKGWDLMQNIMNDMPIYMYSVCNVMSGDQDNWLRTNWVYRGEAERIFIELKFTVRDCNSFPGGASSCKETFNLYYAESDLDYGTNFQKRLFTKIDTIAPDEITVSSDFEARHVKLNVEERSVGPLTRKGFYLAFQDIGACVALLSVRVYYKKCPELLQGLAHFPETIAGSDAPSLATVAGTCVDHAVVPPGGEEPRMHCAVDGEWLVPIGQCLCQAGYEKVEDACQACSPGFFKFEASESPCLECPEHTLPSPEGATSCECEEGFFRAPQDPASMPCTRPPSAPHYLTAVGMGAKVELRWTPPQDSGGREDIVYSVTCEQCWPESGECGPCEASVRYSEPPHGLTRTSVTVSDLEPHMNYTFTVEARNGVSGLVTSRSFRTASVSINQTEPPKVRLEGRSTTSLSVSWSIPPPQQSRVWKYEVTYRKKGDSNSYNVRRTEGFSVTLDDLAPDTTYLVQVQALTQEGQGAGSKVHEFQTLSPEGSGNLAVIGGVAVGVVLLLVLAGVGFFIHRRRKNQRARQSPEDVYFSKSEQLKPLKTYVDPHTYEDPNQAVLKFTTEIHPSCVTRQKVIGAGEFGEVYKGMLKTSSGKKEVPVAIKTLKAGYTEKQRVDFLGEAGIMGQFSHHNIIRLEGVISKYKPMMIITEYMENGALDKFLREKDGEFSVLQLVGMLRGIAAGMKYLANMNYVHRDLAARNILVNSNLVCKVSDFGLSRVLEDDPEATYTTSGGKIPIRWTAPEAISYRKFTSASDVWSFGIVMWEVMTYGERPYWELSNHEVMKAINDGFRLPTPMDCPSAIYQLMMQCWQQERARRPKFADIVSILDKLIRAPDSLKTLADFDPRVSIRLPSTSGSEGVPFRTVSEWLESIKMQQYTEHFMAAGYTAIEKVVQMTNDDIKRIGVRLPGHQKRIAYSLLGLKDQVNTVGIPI
Protocol: Peptides without a fluorescent tag were tested in competition with a peptide with a fluorescent tag and a known Kd.
Peptides were diluted to an appropriate concentration in assay buffer as described in the direct binding assay with a maximum of 5% DMSO, then serially diluted 1 in 2. […] Measurements were conducted, however the gain was determined prior to the first measurement. Data analysis was in Systat Sigmaplot version 12.0 where the mP values were fit to a user defined cubic equation to generate a Ki value:
“Lig”, “KLig” and “Prot” were all defined values relating to: fluorescent peptide concentration, the Kd of the fluorescent peptide and EphA2 concentration respectively.
Compound `CC(C)C[C@@H]1NC(=O)[C@@H]2CSCCC(=O)N3CN(CN(C3)C(=O)CCSC[C@H](NC(=O)[C@H](CC(=O)O)NC(=O)[C@H](CCCCNC(=N)N)NC(=O)[C@H](C)N)C(=O)N3C[C@H](O)C[C@H]3C(=O)N[C@@H](CC(C)C)C(=O)N[C@@H](C(C)C)C(=O)N[C@@H](CC(N)=O)C(=O)N3CCC[C@H]3C(=O)N[C@@H](CC(C)C)C(=O)N2)C(=O)CCSC[C@@H](C(N)=O)NC(=O)[C@H](CCCCNC(=N)N)NC(=O)[C@H](Cc2c[nH]c3ccccc23)NC(=O)[C@@H](CC(=O)O)NC(=O)[C@@H]2CCCN2C(=O)[C@H](CCC(=O)O)NC1=O` [BCY12854, A-[HArg]-D-Ci[HyP]LVNPLCiiLEP[dD]W[HArg]Ciii] (H-A[hArg]DC[Hyp]LVNPLCLEP[dD]W[hArg]C-NH2; linker 4-11-18 via TATA; N-terminus and C-terminus assumed) has a Ki of 9.34 nM. `CC(C)C[C@@H]1NC(=O)[C@@H]2CSCCC(=O)N3CN(CN(C3)C(=O)CCSC[C@H](NC(=O)[C@H](CC(=O)O)NC(=O)[C@H](CCCCNC(=N)N)NC(=O)[C@H](C)N)C(=O)N3C[C@H](O)C[C@H]3C(=O)N[C@@H](CC(C)C)C(=O)N[C@@H](C(C)C)C(=O)N[C@@H](CC(N)=O)C(=O)N3CCC[C@H]3C(=O)N[C@@H](CC(C)C)C(=O)N2)C(=O)CCSC[C@@H](C(N)=O)NC(=O)[C@H]([C@@H](C)O)NC(=O)[C@H](Cc2c[nH]c3ccccc23)NC(=O)[C@@H](CC(=O)O)NC(=O)[C@@H]2CCCN2C(=O)[C@H](Cc2c[nH]cn2)NC1=O` [BCY12855, A-[HArg]-D-Ci[HyP]LVNPLCiiLHP[dD]WTCiii] (H-A[hArg]DC[Hyp]LVNPLCLHP[dD]WTC-NH2; linker 4-11-18 via TATA; N-terminus and C-terminus assumed) was tested, and the Ki was 5.55 nM. `CC(C)C[C@@H]1NC(=O)[C@@H]2CSCCC(=O)N3CN(CN(C3)C(=O)CCSC[C@H](NC(=O)[C@H](CC(=O)O)NC(=O)[C@H](CCCCNC(=N)N)NC(=O)[C@H](C)N)C(=O)N3C[C@H](O)C[C@H]3C(=O)N[C@@H](CC(C)C)C(=O)N[C@@H](C(C)C)C(=O)N[C@@H](CC(N)=O)C(=O)N3CCC[C@H]3C(=O)N[C@@H](CC(C)C)C(=O)N2)C(=O)CCSC[C@@H](C(=O)N[C@H](C)C(N)=O)NC(=O)[C@H]([C@@H](C)O)NC(=O)[C@H](Cc2c[nH]c3ccccc23)NC(=O)[C@@H](CC(=O)O)NC(=O)[C@@H]2CCCN2C(=O)[C@H](CCC(=O)O)NC1=O` [BCY12857, A-[HArg]-D-Ci[HyP]LVNPLCiiLEP[dD]WTCiii[dA]] (H-A[hArg]DC[Hyp]LVNPLCLEP[dD]WTC[dA]-NH2; linker 4-11-18 via TATA; N-terminus and C-terminus assumed) showed a Ki of 16 nM. In the case of `CC(C)C[C@@H]1NC(=O)[C@@H]2CSCCC(=O)N3CN(CN(C3)C(=O)CCSC[C@H](N)C(=O)N3C[C@H](O)C[C@H]3C(=O)N[C@@H](CC(C)C)C(=O)N[C@@H](C(C)C)C(=O)N[C@@H](CC(N)=O)C(=O)N3CCC[C@H]3C(=O)N[C@@H](CC(C)C)C(=O)N2)C(=O)CCSC[C@@H](C(N)=O)NC(=O)[C@H]([C@@H](C)O)NC(=O)[C@H](Cc2c[nH]c3ccccc23)NC(=O)[C@@H](CC(=O)O)NC(=O)[C@@H]2CCCN2C(=O)[C@H](C(c2ccccc2)c2ccccc2)NC1=O` [BCY12860, Ci[HyP]LVNPLCiiL[3,3-DPA]P[dD]WTCiii] (H-C[Hyp]LVNPLCL[Dip]P[dD]WTC-NH2; linker 1-8-15 via TATA; N-terminus and C-terminus assumed), the Ki is reported as 0.66 nM. Compound `CC(C)C[C@@H]1NC(=O)[C@@H]2CSCCC(=O)N3CN(CN(C3)C(=O)CCSC[C@H](N)C(=O)N3C[C@H](O)C[C@H]3C(=O)N[C@@H](CC(C)C)C(=O)N[C@@H](C(C)C)C(=O)N[C@@H](CC(N)=O)C(=O)N3CCC[C@H]3C(=O)N[C@@H](CC(C)C)C(=O)N2)C(=O)CCSC[C@@H](C(=O)N[C@H](C)C(N)=O)NC(=O)[C@H]([C@@H](C)O)NC(=O)[C@H](Cc2c[nH]c3ccccc23)NC(=O)[C@@H](CC(=O)O)NC(=O)[C@@H]2CCCN2C(=O)[C@H](CCC(=O)O)NC1=O` [BCY12861, Ci[HyP]LVNPLCiiLEP[dD]WTCiii[dA]] (H-C[Hyp]LVNPLCLEP[dD]WTC[dA]-NH2; linker 1-8-15 via TATA; N-terminus and C-terminus assumed) has a Ki of 21.7 nM. Compound `CC(C)C[C@@H]1NC(=O)[C@@H]2CSCCC(=O)N3CN(CN(C3)C(=O)CCSC[C@H](NC(=O)[C@H](CC(=O)O)NC(=O)[C@H](CCCCNC(=N)N)NC(=O)[C@H](C)N)C(=O)N3C[C@H](O)C[C@H]3C(=O)N[C@@H](CC3CCC3)C(=O)N[C@@H](C(C)C)C(=O)N[C@@H](CC(N)=O)C(=O)N3CCC[C@H]3C(=O)N[C@@H](CC(C)C)C(=O)N2)C(=O)CCSC[C@@H](C(N)=O)NC(=O)[C@H](CCCCNC(=N)N)NC(=O)[C@H](Cc2c[nH]c3ccccc23)NC(=O)[C@@H](CC(=O)O)NC(=O)[C@@H]2CCCN2C(=O)[C@H](Cc2c[nH]cn2)NC1=O` [BCY12862, A-[HArg]-D-Ci[HyP][Cba]VNPLCiiLHP[dD]W[HArg]Ciii] (H-A[hArg]DC[Hyp][Cba]VNPLCLHP[dD]W[hArg]C-NH2; linker 4-11-18 via TATA; N-terminus and C-terminus assumed) has a Ki of 1.22 nM. Compound `CC(C)C[C@@H]1NC(=O)[C@@H]2CSCCC(=O)N3CN(CN(C3)C(=O)CCSC[C@H](NC(=O)[C@H](CC(=O)O)NC(=O)[C@H](CCCCNC(=N)N)NC(=O)[C@@H](C)N)C(=O)N3C[C@H](O)C[C@H]3C(=O)N[C@@H](CC3CCC3)C(=O)N[C@@H](C(C)C)C(=O)N[C@@H](CC(N)=O)C(=O)N3CCC[C@H]3C(=O)N[C@@H](CC(C)C)C(=O)N2)C(=O)CCSC[C@@H](C(=O)N[C@H](C)C(N)=O)NC(=O)[C@H]([C@@H](C)O)NC(=O)[C@H](Cc2c[nH]c3ccccc23)NC(=O)[C@@H](CC(=O)O)NC(=O)[C@@H]2CCCN2C(=O)[C@H](CCC(=O)O)NC1=O` [BCY12864, [dA]-[HArg]-D-Ci[HyP][Cba]VNPLCiiLEP[dD]WTCiii-[dA]] (H-[dA][hArg]DC[Hyp][Cba]VNPLCLEP[dD]WTC[dA]-NH2; linker 4-11-18 via TATA; N-terminus and C-terminus assumed) has a Ki of 9.29 nM. In the case of `CC(C)C[C@@H]1NC(=O)[C@@H]2CSCCC(=O)N3CN(CN(C3)C(=O)CCSC[C@H](NC(=O)[C@H](CC(=O)O)NC(=O)[C@H](CCCCNC(=N)N)NC(=O)[C@H](C)N)C(=O)N3C[C@H](O)C[C@H]3C(=O)N[C@@H](CC(C)C)C(=O)N[C@@H](C(C)C)C(=O)N[C@@H](CC(N)=O)C(=O)N3CCC[C@H]3C(=O)N[C@@H](CC(C)C)C(=O)N2)C(=O)CCSC[C@@H](C(N)=O)NC(=O)[C@H](CCCCNC(=N)N)NC(=O)[C@H](Cc2c[nH]c3ccccc23)NC(=O)[C@@H](CC(=O)O)NC(=O)[C@@H]2CCCN2C(=O)[C@H](Cc2cccc3ccccc23)NC1=O` [BCY13117, A-[HArg]-D-Ci[HyP]LVNPLCiiL[1Nal]P[dD]W[HArg]Ciii] (H-A[hArg]DC[Hyp]LVNPLCL[1Nal]P[dD]W[hArg]C-NH2; linker 4-11-18 via TATA; N-terminus and C-terminus assumed), the Ki is reported as 1.12 nM. `CC(C)C[C@@H]1NC(=O)[C@@H]2CSCCC(=O)N3CN(CN(C3)C(=O)CCSC[C@H](NC(=O)[C@H](CC(=O)O)NC(=O)[C@H](CCCCNC(=N)N)NC(=O)[C@H](C)N)C(=O)N3C[C@H](O)C[C@H]3C(=O)N[C@@H](CC(C)C)C(=O)N[C@@H](C(C)C)C(=O)N[C@@H](CC(N)=O)C(=O)N3CCC[C@H]3C(=O)N[C@@H](CC(C)C)C(=O)N2)C(=O)CCSC[C@@H](C(N)=O)NC(=O)[C@H]([C@@H](C)O)NC(=O)[C@H](Cc2c[nH]c3ccccc23)NC(=O)[C@@H](Cc2cccc3ccccc23)NC(=O)[C@@H]2CCCN2C(=O)[C@H](CCC(=O)O)NC1=O` [BCY13118, A-[HArg]-D-Ci[HyP]LVNPLCiiLEP[d1Nal]WTCiii] (H-A[hArg]DC[Hyp]LVNPLCLEP[d1Nal]WTC-NH2; linker 4-11-18 via TATA; N-terminus and C-terminus assumed) showed a Ki of 5.42 nM. `CC(C)C[C@@H]1NC(=O)[C@@H]2CSCCC(=O)N3CN(CN(C3)C(=O)CCSC[C@H](N)C(=O)N3C[C@H](O)C[C@H]3C(=O)N[C@@H](CC(C)C)C(=O)N[C@@H](C(C)C)C(=O)N[C@@H](CC(N)=O)C(=O)N3CCC[C@H]3C(=O)N[C@@H](CC(C)C)C(=O)N2)C(=O)CCSC[C@@H](C(N)=O)NC(=O)[C@H]([C@@H](C)O)NC(=O)[C@H](Cc2c[nH]c3ccccc23)NC(=O)[C@@H](CC(=O)O)NC(=O)[C@@H]2CCCN2C(=O)[C@H](Cc2cccc3ccccc23)NC1=O` [BCY13119, Ci[HyP]LVNPLCiiL[1Nal]P[dD]WTCiii] (H-C[Hyp]LVNPLCL[1Nal]P[dD]WTC-NH2; linker 1-8-15 via TATA; N-terminus and C-terminus assumed) showed a Ki of 2.64 nM. For `CC(=O)N[C@H]1CSCCC(=O)N2CN3CN(C2)C(=O)CCSC[C@@H](C(=O)N[C@H](CCCCN)C(N)=O)NC(=O)[C@H]([C@@H](C)O)NC(=O)[C@H](Cc2c[nH]c4ccccc24)NC(=O)[C@@H](CC(=O)O)NC(=O)[C@@H]2CCCN2C(=O)[C@H](C(c2ccccc2)c2ccccc2)NC(=O)[C@H](CC(C)C)NC(=O)[C@H](CSCCC3=O)NC(=O)[C@H](CC(C)C)NC(=O)[C@@H]2CCCN2C(=O)[C@H](CC(N)=O)NC(=O)[C@H](C(C)C)NC(=O)[C@H](CC(C)C)NC(=O)[C@@H]2C[C@@H](O)CN2C1=O` [BCY13120, Ac-Ci[HyP]LVNPLCiiL[3,3-DPA]P[dD]WTCiii-[dK]] (Ac-C[Hyp]LVNPLCL[Dip]P[dD]WTC[dK]-NH2; linker 1-8-15 via TATA; C-terminus assumed), the Ki was 0.916 nM. Compound `CN[C@@H](C)C(=O)N[C@@H](CCCCNC(=N)N)C(=O)N[C@@H](CC(=O)O)C(=O)N[C@H]1CSCCC(=O)N2CN3CN(C2)C(=O)CCSC[C@H](NC(=O)[C@H](CC(C)C)NC(=O)[C@@H]2CCCN2C(=O)[C@H](CC(N)=O)NC(=O)[C@H](C(C)C)NC(=O)[C@H](CC(C)C)NC(=O)[C@@H]2C[C@@H](O)CN2C1=O)C(=O)N[C@@H](CC(C)C)C(=O)N[C@@H](Cc1c[nH]cn1)C(=O)N1CCC[C@H]1C(=O)N[C@H](CC(=O)O)C(=O)N[C@@H](Cc1c[nH]c2ccccc12)C(=O)N[C@@H](CCCCNC(=N)N)C(=O)N[C@H](C(N)=O)CSCCC3=O` [BCY13121, [NMeAla]-[HArg]-D-Ci[HyP]LVNPLCiiLHP[dD]W[HArg]Ciii] (H-[NMeA][hArg]DC[Hyp]LVNPLCLHP[dD]W[hArg]C-NH2; linker 4-11-18 via TATA; N-terminus and C-terminus assumed) has a Ki of 1.49 nM.
